Measured values taken from patent US20240109881A1, “Heteroaryl Compounds as Ligand Directed Degraders of IRAK4” (Bristol-Myers Squibb Company, priority 2022, published 2024).

Target: T1, IRAK4 (Homo sapiens, UniProt Q9NWZ3)
T1 construct: endogenous in cells; host or cells: THP-1 cells
T1 sequence (Q9NWZ3 1-460): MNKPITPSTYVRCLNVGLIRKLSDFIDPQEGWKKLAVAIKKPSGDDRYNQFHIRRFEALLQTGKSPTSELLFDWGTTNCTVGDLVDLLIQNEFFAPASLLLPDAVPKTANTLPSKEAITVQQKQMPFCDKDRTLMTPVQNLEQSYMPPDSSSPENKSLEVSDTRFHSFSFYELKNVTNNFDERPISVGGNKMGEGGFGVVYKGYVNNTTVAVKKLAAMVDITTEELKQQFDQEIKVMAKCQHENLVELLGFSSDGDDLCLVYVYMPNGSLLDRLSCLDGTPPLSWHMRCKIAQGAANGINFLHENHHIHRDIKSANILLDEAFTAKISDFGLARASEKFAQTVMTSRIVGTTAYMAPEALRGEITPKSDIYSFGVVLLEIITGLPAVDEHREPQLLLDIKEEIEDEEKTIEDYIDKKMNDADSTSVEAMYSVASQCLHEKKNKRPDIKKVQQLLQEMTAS
Assay: LVL THP1 HTRF (THP1 Homogeneous Time Resolved Fluorescence)
Assay type: cell-based
Conditions: THP1 cells, 18 h incubation with compound; for DC50: read-out: LVL THP1 HTRF EC50
Procedure, shortened: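 IRAK4 HTRF read-out (665/615 nm ratio, anti-IRAK4 d2 acceptor and K donor, 18 h dark incubation at room temperature) on lysates of THP-1 cells. Cells were treated 18 h at 37° C. with 20 nL compound in DMSO, in colorless RPMI with 10% FBS, with a duplicate CTG plate.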

SMILES	LVL THP1 HTRF YMIN [%]	DC50 [nM]
C[C@H](C#N)Nc1cc(-n2ncc3cc(C#N)cnc32)ncc1-n1cc(C2CCC(CCN3C[C@H](C)N(c4ccc(C5CCC(=O)NC5=O)cc4)C[C@H]3C)CC2)nn1 (stereo partly drawn) [P-206]	1.1	2
C[C@H](C#N)Nc1cc(-n2ncc3cc(C#N)c(N)nc32)ncc1-n1cc(C2CCC(CCN3C[C@@H](C)N(c4ccc(C5CCC(=O)NC5=O)cc4)C[C@@H]3C)CC2)nn1 (stereo partly drawn) [P-207]	1.3	> 5000
C[C@H](C#N)Nc1cc(-n2ncc3cc(C#N)cnc32)ncc1-n1cc(C2CCC(CCN3C[C@@H](C)N(c4ccc(C5CCC(=O)NC5=O)cc4)C[C@@H]3C)CC2)nn1 (stereo partly drawn) [P-208]	1.4	9
CC(C#N)Nc1cc(-n2ncc3cc(C#N)cnc32)ncc1-n1cc(C23CCC(CCN4CCN(c5ccc(C6CCC(=O)NC6=O)cc5)CC4)(CC2)CC3)nn1 (stereo not drawn) [P-212]	1.5	3
C[C@H](C#N)Nc1cc(-n2ncc3cc(C#N)c(N)nc32)ncc1-n1cc(C2CCC(CCN3CCC(c4ccc(C5CCC(=O)NC5=O)cc4)CC3)CC2)nn1 (stereo partly drawn) [P-214]	<0.5	
C[C@H](C#N)Nc1cc(-n2ncc3cc(C#N)c(N)nc32)ncc1-n1cc([C@H]2CC[C@H](CCN3CCC(c4ccc(C5CCC(=O)NC5=O)cc4)CC3)CC2)nn1 (stereo partly drawn) [P-214]		< 1
C[C@H](C#N)Nc1cc(-n2ncc3cc(C#N)c(N)nc32)ncc1-n1cc(C2CCC(CCN3C[C@H](C)N(c4ccc(C5CCC(=O)NC5=O)cc4)C[C@H]3C)CC2)nn1 (stereo partly drawn) [P-215]	0.7	< 1
C[C@H](C#N)Nc1cc(-n2ncc3cc(C#N)c(N)nc32)ncc1-n1cc(C2CCC(CCN3CCN(c4ccc(C5CCC(=O)NC5=O)cc4)[C@H](C)C3)CC2)nn1 (stereo partly drawn) [P-216]	1.	1
CS(=O)(=O)N1CCC(Nc2cc(-n3ncc4cc(C#N)c(N)nc43)ncc2-n2cc(C3CCC(CCN4CCN(c5ccc(C6CCC(=O)NC6=O)cc5)CC4)CC3)nn2)CC1 (stereo not drawn) [P-217]	1.6	
CS(=O)(=O)N1CCC(Nc2cc(-n3ncc4cc(C#N)c(N)nc43)ncc2-n2cc([C@H]3CC[C@H](CCN4CCN(c5ccc(C6CCC(=O)NC6=O)cc5)CC4)CC3)nn2)CC1 (stereo partly drawn) [P-217]		9
C[C@H](C#N)Nc1cc(-n2ncc3cc(C#N)c(N)nc32)ncc1-n1cc(C2CCC(CCN3CCN(c4ccc(C5CCC(=O)NC5=O)cc4)[C@@H](C)C3)CC2)nn1 (stereo partly drawn) [P-219]	1.8	6
C[C@H](C#N)Nc1cc(-n2ncc3cc(C#N)c(N)nc32)ncc1-n1cc(C2CCC(CCN3[C@H](C)CN(c4ccc(C5CCC(=O)NC5=O)cc4)C[C@H]3C)CC2)nn1 (stereo partly drawn) [P-220]	4.3	6
C[C@H](C#N)Nc1cc(-n2ncc3cc(C#N)cnc32)ncc1-n1cc(C2CCC(CCN3[C@H](C)CN(c4ccc(C5CCC(=O)NC5=O)cc4)C[C@H]3C)CC2)nn1 (stereo partly drawn) [P-221]	1.4	5
C[C@H](C#N)Nc1cc(-n2ncc3cc(C#N)c(N)nc32)ncc1-n1cc(C2CCC(CCN3CCN(c4ccc([C@@]5(C)CCC(=O)NC5=O)cc4)CC3)CC2)nn1 (stereo partly drawn) [P-222]	2.1	
C[C@H](C#N)Nc1cc(-n2ncc3cc(C#N)c(N)nc32)ncc1-n1cc([C@H]2CC[C@H](CCN3CCN(c4ccc([C@@]5(C)CCC(=O)NC5=O)cc4)CC3)CC2)nn1 [P-222]		7
C[C@H](C#N)Nc1cc(-n2ncc3cc(C#N)c(N)nc32)ncc1-n1cc(C2CCC(CCN3[C@@H](C)CN(c4ccc(C5CCC(=O)NC5=O)cc4)C[C@@H]3C)CC2)nn1 (stereo partly drawn) [P-223]	2.1	< 1
C[C@H](C#N)Nc1cc(-n2ncc3cc(C#N)cnc32)ncc1-c1ncn(C2CCC(CCN3CCN(c4ccc(C5CCC(=O)NC5=O)cc4)CC3)CC2)n1 (stereo partly drawn) [P-224]	15.9	
C[C@H](C#N)Nc1cc(-n2ncc3cc(C#N)cnc32)ncc1-c1ncn([C@H]2CC[C@H](CCN3CCN(c4ccc(C5CCC(=O)NC5=O)cc4)CC3)CC2)n1 (stereo partly drawn) [P-224]		60
C[C@H](C#N)Nc1cc(-n2ncc3cncnc32)ncc1-n1cc(C2CCC(CCN3CCN(c4ccc([C@@]5(C)CCC(=O)NC5=O)cc4)CC3)CC2)nn1 (stereo partly drawn) [P-225]	3.5	
C[C@H](C#N)Nc1cc(-n2ncc3cncnc32)ncc1-n1cc([C@H]2CC[C@H](CCN3CCN(c4ccc([C@@]5(C)CCC(=O)NC5=O)cc4)CC3)CC2)nn1 [P-225]		133
C[C@H](C#N)Nc1cc(-n2ncc3cnc(N)nc32)ncc1-n1cc(C2CCC(CCN3CCN(c4ccc([C@@]5(C)CCC(=O)NC5=O)cc4)CC3)CC2)nn1 (stereo partly drawn) [P-228]	3.6	
C[C@H](C#N)Nc1cc(-n2ncc3cnc(N)nc32)ncc1-n1cc([C@H]2CC[C@H](CCN3CCN(c4ccc([C@@]5(C)CCC(=O)NC5=O)cc4)CC3)CC2)nn1 [P-228]		9
C[C@H](C#N)Nc1cc(-c2ccc3cc(C#N)cnn23)ncc1-n1cc(C2CCC(CCN3CCN(c4ccc([C@@]5(C)CCC(=O)NC5=O)cc4)CC3)CC2)nn1 (stereo partly drawn) [P-230]	2.8	
C[C@H](C#N)Nc1cc(-c2ccc3cc(C#N)cnn23)ncc1-n1cc([C@H]2CC[C@H](CCN3CCN(c4ccc([C@@]5(C)CCC(=O)NC5=O)cc4)CC3)CC2)nn1 [P-230]		7
C[C@H]1CN(c2ccc([C@@]3(C)CCC(=O)NC3=O)cc2)C[C@H](C)N1CCC1CCC(c2cn(-c3cnc(-n4ncc5cc(C#N)cnc54)cc3NC3(C#N)CC3)nn2)CC1 (stereo partly drawn) [P-232]	7.1	65
C[C@H](C#N)Nc1cc(-n2ncc3cc(C#N)cnc32)ncc1-n1cc(C2CCC(CCN3CCC(c4ccc([C@@]5(C)CCC(=O)NC5=O)cc4)CC3)CC2)nn1 (stereo partly drawn) [P-233]	2.8	
C[C@H](C#N)Nc1cc(-n2ncc3cc(C#N)cnc32)ncc1-n1cc([C@H]2CC[C@H](CCN3CCC(c4ccc([C@@]5(C)CCC(=O)NC5=O)cc4)CC3)CC2)nn1 [P-233]		8
C[C@]1(c2ccc(N3CCN(CCC4CCC(c5cn(-c6cnc(-n7ncc8cc(C#N)cnc87)cc6NC6(C#N)CC6)nn5)CC4)CC3)cc2)CCC(=O)NC1=O (stereo partly drawn) [P-234]	3.1	

The remaining lines, values ahead:

LVL THP1 HTRF YMIN [%]	DC50 [nM]	SMILES
1.1		C[C@@H](C#N)Nc1cc(-n2ncc3cc(C#N)cnc32)ncc1-n1cc(C2CCC(CCN3CCN(c4ccc(C5CCC(=O)NC5=O)cc4)CC3)CC2)nn1 (stereo partly drawn) [P-205]
	30	C[C@@H](C#N)Nc1cc(-n2ncc3cc(C#N)cnc32)ncc1-n1cc([C@H]2CC[C@H](CCN3CCN(c4ccc(C5CCC(=O)NC5=O)cc4)CC3)CC2)nn1 (stereo partly drawn) [P-205]
0.9		C[C@H](C#N)Nc1cc(-n2ncc3cc(C#N)cnc32)ncc1-n1cc(C2CCC(CCN3CCC(c4ccc(C5CCC(=O)NC5=O)cc4)CC3)CC2)nn1 (stereo partly drawn) [P-209]
	1	C[C@H](C#N)Nc1cc(-n2ncc3cc(C#N)cnc32)ncc1-n1cc([C@H]2CC[C@H](CCN3CCC(c4ccc(C5CCC(=O)NC5=O)cc4)CC3)CC2)nn1 (stereo partly drawn) [P-209]
>95.0	15	C[C@H](C#N)Nc1cc(-n2ncc3cc(C#N)cnc32)ncc1-n1cc(C2CCC(CCN3CCN(c4ccc([C@]5(C)CCC(=O)NC5=O)cc4)CC3)CC2)nn1 (stereo partly drawn) [P-210]
1.1		C[C@H](C#N)Nc1cc(-n2ncc3cc(C#N)cnc32)ncc1-c1cc(C2CCC(CCN3CCN(c4ccc(C5CCC(=O)NC5=O)cc4)CC3)CC2)no1 (stereo partly drawn) [P-211]
	3	C[C@H](C#N)Nc1cc(-n2ncc3cc(C#N)cnc32)ncc1-c1cc([C@H]2CC[C@H](CCN3CCN(c4ccc(C5CCC(=O)NC5=O)cc4)CC3)CC2)no1 (stereo partly drawn) [P-211]
1.7	2	CC(C#N)Nc1cc(-n2ncc3cc(C#N)cnc32)ncc1-n1cc(C2CCC(C(C)CN3CCN(c4ccc(C5CCC(=O)NC5=O)cc4)CC3)CC2)nn1 (stereo not drawn) [P-213]
4.3		C[C@H](C#N)Nc1cc(-n2ncc3cncnc32)ncc1-n1cc(C2CCC(CCN3CCN(c4ccc(C5CCC(=O)NC5=O)cc4)CC3)CC2)nn1 (stereo partly drawn) [P-218]
	6	C[C@H](C#N)Nc1cc(-n2ncc3cncnc32)ncc1-n1cc([C@H]2CC[C@H](CCN3CCN(c4ccc(C5CCC(=O)NC5=O)cc4)CC3)CC2)nn1 (stereo partly drawn) [P-218]
2.1	5	C[C@H](C#N)Nc1cc(-n2ncc3cc(C#N)cnc32)ncc1-n1cc([C@H]2CC[C@](O)(CCN3CCN(c4ccc(C5CCC(=O)NC5=O)cc4)CC3)CC2)nn1 (stereo partly drawn) [P-226, 1-(4-(((R)-1-cyanoethyl)amino)-5-(4-(4-(2-(4-(4-(2,6-dioxopiperidin-3-yl)phenyl)piperazin-1-yl)ethyl)-4-hydroxycyclohexyl)-1H-1,2,3-triazol-1-yl)pyridin-2-yl)-1H-pyrazolo[3,4-b]pyridine-5-carbonitrile]
3.0	2	C[C@H](C#N)Nc1cc(-n2ncc3cc(C#N)cnc32)ncc1-n1cc(C2CCC(O)(CCN3CCN(c4ccc(C5CCC(=O)NC5=O)cc4)CC3)CC2)nn1 (stereo partly drawn) [P-227]
1.37		C[C@H](C#N)Nc1cc(-n2ncc3cnc(N)nc32)ncc1-n1cc(C2CCC(CCN3CCN(c4ccc(C5CCC(=O)NC5=O)cc4)CC3)CC2)nn1 (stereo partly drawn) [P-231]
	1	C[C@H](C#N)Nc1cc(-n2ncc3cnc(N)nc32)ncc1-n1cc([C@H]2CC[C@H](CCN3CCN(c4ccc(C5CCC(=O)NC5=O)cc4)CC3)CC2)nn1 (stereo partly drawn) [P-231]
